According to PMC12120630, “Nicotianin-I: A Tobacco Floral Nectar Peptide with Anticandidal Activity” (ACS Omega, 2025):
Converted amounts (≈) assume the structure as drawn. “And” between values parts separate entries of the source, which are not always exact repeats. Equal entries are not always repeated. Residues, ends and D or L forms follow the SMILES beside them.

Key:
C. parapsilosis = tested on: C. parapsilosis; design: method as in PMID 35456530; conditions: cited from earlier work
C. albicans = conditions: cited from earlier work
[1] = tested on: L929 (murine fibroblast) cells; conditions: L929, 200 μM
Method: Cell viability of peptide-treated fibroblast cells was tested by the MTT method. Shortly, L929 cells were trypsinized (trypsin–EDTA solution) and seeded into 96-well plates with DMEM (100 μL) at 1 × 10^5 cells/mL for 48 h, followed by the addition of the same volume of serially diluted nicotianin-I (200–1.56 μM) and negative control (0.15 M NaCl). The images were captured with the aid of an optical microscope coupled with phase contrast (AE200, Motic, Barcelona, CT, ES) under 200× magnification. Finally, 10 μL of 5 mg/mL MTT was added to each well, and the mixture was incubated at 37 °C for 3 h. Formazan was solubilized with DMSO (150 μL), and the OD570 nm was measured in a microplate reader.

[2] = tested on: C. albicans, C. krusei, C. parapsilosis, and C. tropicalis; test: Anticandidal activity, statements for all strains tested; type: cell-based, Candida spp.; conditions: peptide 200 to 1.56 μM, 24 h, 37 °C
Method: (§1) The anticandidal activity was performed against the following species: C. albicans (ATCC 10231), C. krusei (ATCC 22019), C. parapsilosis (ATCC 6258), and C. tropicalis (INCQS 40042). The cell concentration was standardized by OD600 nm to achieve a concentration of 1.5 × 10^3 CFU/mL. The assays were performed using 96-well microplates, mixing the cell suspensions (100 μL) with 100 μL of each peptide serially diluted (200 to 1.56 μM, final concentrations) in 0.15 M NaCl containing 5% DMSO (dimethyl sulfoxide), which was used as a control. The plates were incubated for 24 h at 37 °C under agitation (150 rpm), and the readings were done at 600 nm using a Microtiter Plate Reader. The results are shown as the percentage of growth, considering the OD600 nm of the control as 100%.

[3] = tested on: Zebrafish embryos (AB wild-type strain); test: Fish Embryo Acute Toxicity (FET) test, OECD 236 adapted for 96-well plate; type: in vivo
Method: Zebrafish embryos (AB wild-type strain) with approximately 1 h postfertilization (hpf) were provided by the Production Unit for Alternative Model Organisms (UniPOM), Federal University of Paraiba (UFPB), João Pessoa, Brazil. A day before the experiment, zebrafish adults (male/female ratio of 2:1) were transferred to a 7 L spawning tank with a bottom mesh and a quick-opening valve for embryo collection. Embryos were collected on the day of the experiment and cultured in the adapted embryonic medium E3 (5.0 mM NaCl, 0.17 mM KCl, 0.33 mM CaCl, and 0.33 mM MgSO4) containing 0.005% methylene blue. Only spawnings with a fertilization rate ≥90% were used. Viable embryos (normal cleavage pattern and without morphological changes) were selected using an inverted light microscope (Televal 31, Zeiss, Germany) at 50× magnification. The experiments were approved by the Ethics Committee on the Use of Animals at UFPB, with authorization documented by protocol no. 4460140920.
The Fish Embryo Acute Toxicity (FET test) test was conducted according to OECD’s guideline number 236 adapted for 96-well plate, as described by Muniz et al. Zebrafish embryos with up to 3 hpf were exposed to five concentrations (6.25, 12.5, 25, 50, and 100 μg/mL) of nicotianin-I, with the last concentration being adopted as a limit concentration. Twenty wells were filled with 0.3 mL of E3 medium and 1 embryo. In the same conditions, E3 medium and 0.15 M NaCl containing 5% DMSO were used as controls.
Embryos showing lethality end points (embryo coagulation, lack of somite formation, nondetachment of the tail bud, and lack of heartbeat) were considered dead. This number was used to determine the survival rate % [number of alive organisms/total number of organisms × 100] per tested concentration. The exposures were under static conditions (without renovation of the exposure solution). Observations were performed using a stereomicroscope at a 50× magnification. After 96 h, the surviving larvae were euthanized with eugenol and properly discarded.

C. krusei (ATCC 22019) = type: cell-based, Candida krusei; conditions: ATCC 22019, 24 h
Method: as §1

[4] = tested on: human erythrocyte (type O); conditions: 200 μM; 1% human erythrocytes, 1 h, 37 °C, OD414; relative to 0.1% Triton-X-100
Method: To assess a possible indicator of cytotoxicity, 150 μL of nicotianin-I, serially diluted with 0.15 M NaCl containing 5% DMSO, was incubated at 37 °C for 1 h with the same volume of 1% human erythrocyte (type O), which was obtained from the Hematology and Hemotherapy Center of Ceará, Brazil. Samples were centrifuged for 5 min at 2500g, and the supernatant was transferred to 96-well microplates. Released hemoglobin content was measured at OD414 nm. 0.1% Triton-X-100 and 0.15 M NaCl containing 5% DMSO were used as the positive and negative controls, respectively.

[5] = tested on: C. parapsilosis (ATCC 6258); type: cell-based, Candida parapsilosis; conditions: ATCC 6258, 24 h
Method: as §1

[6] = tested on: C. tropicalis (INCQS 40042); type: cell-based, Candida tropicalis; conditions: INCQS 40042, 24 h
Method: as §1

C. albicans (ATCC 10231) = type: cell-based, Candida albicans; conditions: ATCC 10231, 24 h
Method: as §1

zebrafish embryos = conditions: cited from earlier work

C[C@@H]1[C@H](O)[C@@H](C)/C=C/C=C/C=C/C=C/C=C/C=C/C=C/[C@H](O[C@@H]2O[C@H](C)[C@@H](O)[C@H](N)[C@@H]2O)C[C@@H]2O[C@](O)(C[C@@H](O)C[C@@H](O)[C@H](O)CC[C@@H](O)C[C@@H](O)CC(=O)O[C@H]1C)C[C@H](O)[C@H]2C(=O)O [Amphotericin B]
MIC (C. parapsilosis): 0.25 µg/mL (≈ 0.271 µM)
MIC (C. albicans): 0.25 µg/mL (≈ 0.271 µM)

CC(C)[C@H](N)C(=O)N[C@@H](CS)C(=O)N1CCC[C@H]1C(=O)N[C@@H](CS)C(=O)N[C@@H](C)C(=O)N[C@@H](CS)C(=O)N[C@@H](CS)C(=O)N[C@@H](CO)C(=O)N[C@H](C(=O)N1CCC[C@H]1C(=O)N[C@@H](CCCNC(=N)N)C(=O)N[C@@H](CCCNC(=N)N)C(=O)N[C@H](C(=O)O)C(C)C)[C@@H](C)O [Pep1] (H-VCPCACCSTPRRV-OH; N-terminus and C-terminus assumed)
reduction of cellular viability (up to) ([1]; MTT, OD570): 80.95%
in vitro antifungal activity (growth inhibition), in words [2]: negligible or no significant inhibition

CC(C)C[C@H](NC(=O)[C@H](CS)NC(=O)[C@H](Cc1ccc(O)cc1)NC(=O)CNC(=O)[C@H](Cc1c[nH]cn1)NC(=O)[C@H](CCCNC(=N)N)NC(=O)[C@@H](NC(=O)[C@H](CS)NC(=O)[C@H](CO)NC(=O)[C@H](Cc1ccc(O)cc1)NC(=O)[C@H](Cc1c[nH]cn1)NC(=O)[C@@H](N)CCCCN)[C@@H](C)O)C(=O)N[C@@H](C)C(=O)N[C@@H](CS)C(=O)N[C@@H](Cc1ccc(O)cc1)C(=O)N[C@@H](CCCCN)C(=O)N[C@@H](CCCNC(=N)N)C(=O)N[C@@H](Cc1c[nH]c2ccccc12)C(=O)N[C@@H](Cc1ccccc1)C(=O)O [nicotianin-I] (H-KHYSCTRHGYCLACYKRWF-OH)
survival rate ([3]; 50 μg/mL (21 μM), 96 h exposure, static, 20 embryos per concentration): 90%
mortality rate ([3]; 100 μg/mL or 42 μM (highest concentration), as stated in the abstract): 40%
blood clotting ([3]; 6.25–100 μg/mL, 96 h): n.e. (n.e.: no effect or less than 20% of embryos affected)
body pigmentation ([3]; 6.25–100 μg/mL, 96 h): n.e. (n.e.: no effect or less than 20% of embryos affected)
eye malformation ([3]; 6.25–100 μg/mL, 96 h): n.e. ^b (n.e.: no effect or less than 20% of embryos affected)
granules around the embryo (LOAEL) ([3]; 6.25–100 μg/mL, 96 h): 100 µg/mL
hatching delay (LOAEL) ([3]; 6.25–100 μg/mL, 96 h): 100 µg/mL
mouth malformation ([3]; 6.25–100 μg/mL, 96 h): n.e. (n.e.: no effect or less than 20% of embryos affected)
otolith malformation ([3]; 6.25–100 μg/mL, 96 h): n.e. (n.e.: no effect or less than 20% of embryos affected)
pericardial edema ([3]; 6.25–100 μg/mL, 96 h): n.e
spine malformation ([3]; 6.25–100 μg/mL, 96 h): n.e. (n.e.: no effect or less than 20% of embryos affected)
undersize ([3]; 6.25–100 μg/mL, 96 h): n.e. (n.e.: no effect or less than 20% of embryos affected)
yolk sac edema ([3]; 6.25–100 μg/mL, 96 h): n.e. (n.e.: no effect or less than 20% of embryos affected)
lowest observed adverse effect level (LOAEL) ([3]; nonlethal effects: hatching delay, granules around the embryo): 100 µg/mL
LC50 (mortality) ([3]; zebrafish embryos, 96 h exposure): 131 µg/mL and 131.85 µg/mL
LC50 ([3]; zebrafish embryos, 96 h exposure, same value given in μM): 54 µM
cytotoxicity to fibroblasts, in words ([1]; MTT and phase contrast microscopy): no cytotoxicity
IC50 (C. krusei (ATCC 22019)): 57 ± 3.7 µM
MIC (C. krusei (ATCC 22019)): 133 ± 8.6 µM (≈ 322 µg/mL)
maximum percentage of hemolysis [4]: 28.1%
IC50 [5]: 46 ± 2.2 µM
MIC [5]: 141 ± 7.1 µM (≈ 342 µg/mL)
IC50 [6]: 24 ± 1.9 µM
MIC [6]: 86 ± 3.6 µM (≈ 208 µg/mL)
IC50 (C. albicans (ATCC 10231)): 80 ± 4.6 µM
MIC (C. albicans (ATCC 10231)): 120 ± 9.3 µM (≈ 291 µg/mL)

C[C@@H]1[C@H](O)[C@@H](C)/C=C/C=C/CC/C=C/C=C/C=C/C=C/C(O[C@H]2O[C@H](C)[C@@H](O)[C@H](N)[C@@H]2O)CC2O[C@](O)(CC(O)C(O)CCC(O)CC(O)CC(O)CC(=O)O[C@H]1C)CC(O)C2C(=O)O (some centres unmarked) [nystatin]
LC50 (zebrafish embryos; zebrafish embryos at 120 h postfertilization): 6.2 µg/mL (≈ 6.69 µM)
exposure concentration causing cardiac abnormalities (pericardial edema, reduced heartbeat) (zebrafish embryos; zebrafish embryos, Nys 3 × MIC, AmB 3.2 × MIC): 3 µg/mL
MIC (C. parapsilosis): 1 µg/mL (≈ 1.08 µM)
MIC (C. albicans): 1 µg/mL (≈ 1.08 µM)

EYCSAKSAKPGVHCRSCALVNMYK [Pep2, ornamental tobacco floral nectar peptide […]]
in vitro antifungal activity (growth inhibition), in words [2]: negligible or no significant inhibition

HRFSYMCFVAQVLNKDYCSCCKF [Pep5, ornamental tobacco floral nectar peptide […]]
in vitro antifungal activity (growth inhibition), in words [2]: negligible or no significant inhibition

LHSGEGSTCYFFKTNPCCCGTWNCT [Pep3, ornamental tobacco floral nectar peptide […]]
in vitro antifungal activity (growth inhibition), in words [2]: negligible or no significant inhibition

WKCGSTPAPRKYCTCVAKMW [Pep4, ornamental tobacco floral nectar peptide […]]
in vitro antifungal activity (growth inhibition), in words [2]: negligible or no significant inhibition
